Where “and” joins values, the source holds several entries; their conditions need not be identical. Equal values may be shown once. Inconclusive results and toxic doses are left out. No stated cut-off is given here; in the data, active means T/C of 150% or more; inactive means T/C below 125%.
Test system: L1210 leukemia ip in BDF1 mice, survival T/C
Experiment: NCI In Vivo Anticancer Drug Screen. Data for tumor model L1210 Leukemia (intraperitoneal) in B6D2F1 (BDF1) mice
Conditions: endpoint: mean survival time, higher = longer survival
Procedure, shortened: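 Read-out is survival time, reported as the treated-group measurement over the vehicle-control measurement.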

[1] = dose: 75.0 mg/kg/injection, schedule: Q01DX009 (ip), vehicle: saline
[2] = dose: 75.0 mg/kg/injection, schedule: Q04DX003 (ip), vehicle: saline
[3] = dose: 150.0 mg/kg/injection, schedule: Q04DX003 (ip), vehicle: saline
[4] = dose: 100.0 mg/kg/injection, schedule: Q04DX002 (ip), vehicle: saline with Tween-80
[5] = dose: 200.0 mg/kg/injection, schedule: Q04DX002 (ip), vehicle: saline with Tween-80
[6] = dose: 400.0 mg/kg/injection, schedule: Q04DX002 (ip), vehicle: saline with Tween-80
[7] = dose: 100.0 mg/kg/injection, schedule: Q04DX003 (ip), vehicle: Klucel (hydroxypropylcellulose) (HPC)
[8] = dose: 200.0 mg/kg/injection, schedule: Q04DX003 (ip), vehicle: Klucel (hydroxypropylcellulose) (HPC)
[9] = dose: 400.0 mg/kg/injection, schedule: Q04DX003 (ip), vehicle: Klucel (hydroxypropylcellulose) (HPC)
[10] = dose: 100.0 mg/kg/injection, schedule: Q04DX002 (ip), vehicle: Klucel (hydroxypropylcellulose) (HPC)
[11] = dose: 200.0 mg/kg/injection, schedule: Q04DX002 (ip), vehicle: Klucel (hydroxypropylcellulose) (HPC)
[12] = dose: 400.0 mg/kg/injection, schedule: Q04DX002 (ip), vehicle: Klucel (hydroxypropylcellulose) (HPC)
[13] = dose: 100.0 mg/kg/injection, schedule: Q04DX003 (ip), vehicle: saline
[14] = dose: 200.0 mg/kg/injection, schedule: Q04DX003 (ip), vehicle: saline
[15] = dose: 400.0 mg/kg/injection, schedule: Q04DX003 (ip), vehicle: saline
[16] = dose: 100.0 mg/kg/injection, schedule: Q01DX009 (ip), vehicle: Klucel (hydroxypropylcellulose) (HPC)
[17] = dose: 200.0 mg/kg/injection, schedule: Q01DX009 (ip), vehicle: Klucel (hydroxypropylcellulose) (HPC)
[18] = dose: 400.0 mg/kg/injection, schedule: Q01DX009 (ip), vehicle: Klucel (hydroxypropylcellulose) (HPC)

Measured: T/C

COC1CCCNC1CC(=O)Cn1cnc2cc3c(cc2c1=O)OCO3 (stereo not given)
inactive: dose: 18.75 mg/kg/injection, schedule: Q01DX009 (ip), vehicle: saline 92 % of control | dose: 37.5 mg/kg/injection, schedule: Q01DX009 (ip), vehicle: saline 111 % of control | dose: 37.5 mg/kg/injection, schedule: Q04DX003 (ip), vehicle: saline 98 % of control | dose: 75.0 mg/kg/injection, schedule: Q01DX001 (ip), vehicle: saline 101 % of control | [1] 93 % of control | [2] 104 % of control | dose: 150.0 mg/kg/injection, schedule: Q01DX001 (ip), vehicle: saline 107 % of control | [3] 100 % of control

N#C/C(=C\c1c[nH]c2ccccc12)c1ccc([N+](=O)[O-])cc1
inactive: dose: 100.0 mg/kg/injection, schedule: Q04DX002 (ip), vehicle: gum acacia 95 % of control | dose: 200.0 mg/kg/injection, schedule: Q04DX002 (ip), vehicle: gum acacia 101 % of control

CC(=O)n1cc(/C=C2\N=C(c3ccc([N+](=O)[O-])cc3)OC2=O)c2ccccc21
inactive: [4] 95 % of control | [5] 109 % of control | [6] 92 % of control

Cc1ccc(S(=O)(=O)SS(=O)(=O)c2ccc(C)cc2)cc1
inactive: [4] 90 % of control | [5] 90 % of control | [6] 90 % of control

[O-][n+]1c2ccccc2nc2ccccc21
inactive: [7] 98 % of control | [8] 98 % of control | [9] 89 % of control

C1=C(c2ccccc2)N(C2CC2)C(c2ccccc2)=CN1Cc1ccccc1
inactive: [10] 95 % of control | [11] 118 % of control | [12] 103 % of control

S=P(c1ccccc1)(N1CC1)N1CC1
inactive: dose: 25.0 mg/kg/injection, schedule: Q04DX002 (ip), vehicle: saline with Tween-80 110 % of control | dose: 50.0 mg/kg/injection, schedule: Q01DX Z (ip), vehicle: saline 124 % of control | dose: 50.0 mg/kg/injection, schedule: Q04DX002 (ip), vehicle: saline with Tween-80 103 % of control | dose: 100.0 mg/kg/injection, schedule: Q01DX Z (ip), vehicle: saline 115 % of control | [4] 115 % of control and 116 % of control | [5] 92 % of control

Clc1nc2nc(C(Cl)(Cl)Cl)[nH]c2nc1Cl
inactive: dose: 6.25 mg/kg/injection, schedule: Q01DX009 (ip), vehicle: Klucel (hydroxypropylcellulose) (HPC) 103 % of control | dose: 12.5 mg/kg/injection, schedule: Q01DX009 (ip), vehicle: Klucel (hydroxypropylcellulose) (HPC) 102 % of control | dose: 25.0 mg/kg/injection, schedule: Q01DX009 (ip), vehicle: Klucel (hydroxypropylcellulose) (HPC) 115 % of control | dose: 50.0 mg/kg/injection, schedule: Q01DX009 (ip), vehicle: Klucel (hydroxypropylcellulose) (HPC) 105 % of control | [7] 97 % of control | [8] 100 % of control

CC1C(C)(C)P(=O)(n2nnc3ccccc32)C1(C)C (stereo not given)
inactive: [13] 105 % of control | [14] 97 % of control | [15] 94 % of control

COc1ccc2c3c(ccc2c1)NC(C(=O)O)CC3 (stereo not given)
inactive: [16] 97 % of control | [17] 96 % of control | [18] 96 % of control

NC(N)=N/N=C/c1ccccc1Cl
inactive: dose: 4.0 mg/kg/injection, schedule: Q01DX Z (ip), vehicle: saline 97 % of control | dose: 8.0 mg/kg/injection, schedule: Q01DX Z (ip), vehicle: saline 97 % of control | dose: 16.0 mg/kg/injection, schedule: Q01DX Z (ip), vehicle: saline 102 % of control

COc1cc(OC)c(/C=C/c2cc3c4ccccc4ccc3[n+](C)c2)c(OC)c1
inactive: dose: 6.25 mg/kg/injection, schedule: Q01DX001 (ip), vehicle: saline with Tween-80 104 % of control | dose: 12.5 mg/kg/injection, schedule: Q01DX001 (ip), vehicle: saline with Tween-80 107 % of control

Cc1cc(C(=O)O)c(C(=O)O)c(Cl)n1
inactive: dose: 75.0 mg/kg/injection, schedule: Q01DX001 (ip), vehicle: other 90 % of control | dose: 150.0 mg/kg/injection, schedule: Q01DX001 (ip), vehicle: other 95 % of control | dose: 300.0 mg/kg/injection, schedule: Q01DX001 (ip), vehicle: other 91 % of control

C=COC1CCCCC1
inactive: [16] 101 % of control | [7] 97 % of control | [17] 100 % of control | [8] 90 % of control | [18] 95 % of control | [9] 88 % of control

CCCC/C=C\C=C\CCCC
inactive: [13] 95 % of control | [14] 103 % of control | [15] 97 % of control

C=CC(=O)c1c(O)cc(O)c2c1C(C)C(=O)O2 (stereo not given)
inactive: dose: 50.0 mg/kg/injection, schedule: Q01DX001 (ip), vehicle: saline 104 % of control | dose: 75.0 mg/kg/injection, schedule: Q01DX009 (ip), vehicle: Klucel (hydroxypropylcellulose) (HPC) 89 % of control | dose: 100.0 mg/kg/injection, schedule: Q01DX001 (ip), vehicle: saline 101 % of control | [7] 106 % of control | dose: 200.0 mg/kg/injection, schedule: Q01DX001 (ip), vehicle: saline 104 % of control

O=C(O)C1C2C=CC(C3C=CC32)C1C(=O)O (stereo not given)
inactive: dose: 6.25 mg/kg/injection, schedule: Q01DX009 (ip), vehicle: saline 98 % of control | dose: 12.5 mg/kg/injection, schedule: Q01DX009 (ip), vehicle: saline 110 % of control | dose: 25.0 mg/kg/injection, schedule: Q01DX009 (ip), vehicle: saline 102 % of control and 115 % of control | dose: 50.0 mg/kg/injection, schedule: Q01DX009 (ip), vehicle: saline 96 % of control and 105 % of control | dose: 100.0 mg/kg/injection, schedule: Q01DX009 (ip), vehicle: saline 100 % of control | dose: 200.0 mg/kg/injection, schedule: Q01DX009 (ip), vehicle: saline 100 % of control | dose: 400.0 mg/kg/injection, schedule: Q01DX009 (ip), vehicle: saline 94 % of control

O=C(Nc1ccc(CCC2=NCCN2)cc1)c1ccc(C(=O)Nc2ccc(CCC3=NCCN3)cc2)cc1
inactive: dose: 30.0 mg/kg/injection, schedule: Q01DX Z (oral), vehicle: saline 101 % of control | dose: 60.0 mg/kg/injection, schedule: Q01DX Z (oral), vehicle: saline 103 % of control | dose: 120.0 mg/kg/injection, schedule: Q01DX Z (oral), vehicle: saline 106 % of control | dose: 240.0 mg/kg/injection, schedule: Q01DX Z (oral), vehicle: saline 97 % of control

CC(C)=NOS(=O)(=O)c1ccc(C)cc1
inactive: [1] 103 % of control | [2] 88 % of control | dose: 150.0 mg/kg/injection, schedule: Q01DX009 (ip), vehicle: saline 98 % of control | [3] 92 % of control | dose: 300.0 mg/kg/injection, schedule: Q01DX009 (ip), vehicle: saline 101 % of control | dose: 300.0 mg/kg/injection, schedule: Q04DX003 (ip), vehicle: saline 88 % of control

C(=N\c1oc(-c2ccccc2)nc1SCc1ccccc1)/c1ccccc1
inactive: [10] 96 % of control | [11] 96 % of control | [12] 120 % of control

Fc1cc(F)c(F)c(Oc2c(F)c(F)c(F)c(F)c2F)c1F
inactive: [7] 100 % of control | [8] 95 % of control | [9] 93 % of control

Source: PubChem BioAssay AID248 (DTP/NCI, 2004)
